Results taken from ChEMBL document CHEMBL1770074, “Syntheses and characterization of novel oxoisoaporphine derivatives as dual inhibitors for cholinesterases and amyloid beta aggregation” (Eur J Med Chem, 2011).

Assays:
[1] = Inhibition of amyloid beta (1 to 42) aggregation assessed as inhibition of fibril formation at 10 uM by thioflavin-T fluorescent dye assay
SH-SY5Y = experiment: cells; details: Homo sapiens, 48 h
Description: Cytotoxicity against human SH-SY5Y cells assessed as cell viability after 48 hrs by MTT assay

Cholinesterase = Cholinesterase (Equus caballus, UniProt P81908)
Description: Inhibition of equine serum BChE by Ellman's method

Acetylcholinesterase = Acetylcholinesterase (Electrophorus electricus, UniProt O42275)
Acetylcholinesterase, sequence (O42275 whole entry): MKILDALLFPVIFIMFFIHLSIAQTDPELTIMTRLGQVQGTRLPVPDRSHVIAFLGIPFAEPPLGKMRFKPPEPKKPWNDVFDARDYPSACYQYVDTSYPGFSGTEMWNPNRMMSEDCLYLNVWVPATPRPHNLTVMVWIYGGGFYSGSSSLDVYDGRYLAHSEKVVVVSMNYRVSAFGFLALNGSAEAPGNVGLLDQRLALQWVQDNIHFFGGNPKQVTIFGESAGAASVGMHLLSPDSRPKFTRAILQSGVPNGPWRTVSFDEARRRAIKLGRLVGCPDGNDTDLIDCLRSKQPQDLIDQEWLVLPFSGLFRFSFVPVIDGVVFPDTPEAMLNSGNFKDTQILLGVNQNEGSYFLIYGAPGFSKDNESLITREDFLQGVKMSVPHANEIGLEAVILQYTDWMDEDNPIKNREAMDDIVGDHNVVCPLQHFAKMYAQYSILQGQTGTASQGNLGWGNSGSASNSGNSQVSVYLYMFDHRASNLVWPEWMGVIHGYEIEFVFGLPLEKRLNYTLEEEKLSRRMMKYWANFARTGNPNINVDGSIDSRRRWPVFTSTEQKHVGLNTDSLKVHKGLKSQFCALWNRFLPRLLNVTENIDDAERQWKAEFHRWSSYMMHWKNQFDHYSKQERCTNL
Description: Inhibition of electric eel AChE by Ellman's method

Cholinesterase, sequence (P81908 whole entry): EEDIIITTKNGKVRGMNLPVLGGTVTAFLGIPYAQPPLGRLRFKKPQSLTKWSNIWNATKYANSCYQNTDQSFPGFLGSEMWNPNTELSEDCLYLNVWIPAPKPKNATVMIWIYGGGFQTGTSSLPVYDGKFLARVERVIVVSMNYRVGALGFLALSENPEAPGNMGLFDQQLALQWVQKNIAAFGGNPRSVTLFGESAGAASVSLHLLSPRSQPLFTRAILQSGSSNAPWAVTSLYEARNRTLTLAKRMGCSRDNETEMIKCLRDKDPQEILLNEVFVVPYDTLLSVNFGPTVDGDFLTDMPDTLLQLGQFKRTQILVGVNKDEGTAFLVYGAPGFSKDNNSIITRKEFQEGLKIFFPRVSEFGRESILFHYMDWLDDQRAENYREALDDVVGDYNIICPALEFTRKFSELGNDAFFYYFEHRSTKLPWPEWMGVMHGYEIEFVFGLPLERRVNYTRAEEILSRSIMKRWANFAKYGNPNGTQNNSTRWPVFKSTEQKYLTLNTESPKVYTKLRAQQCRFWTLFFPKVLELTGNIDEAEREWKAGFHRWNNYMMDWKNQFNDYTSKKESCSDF

| SMILES | inhibition [1] | IC50 (SH-SY5Y) | IC50 (Cholinesterase) | IC50 (Acetylcholinesterase) |
| --- | --- | --- | --- | --- |
| CN(C)CCCC(=O)Nc1ccc2c(c1)C(=O)c1cccc3ccnc-2c13 | 65.2% | 3.27 µM |  |  |
| C[N+]1(CC(=O)Nc2ccc3c(c2)C(=O)c2cccc4ccnc-3c24)CCCC1 | 52% | > 25 µM |  |  |
| CN(C)CCC(=O)Nc1ccc2c(c1)C(=O)c1cccc3ccnc-2c13 | 69.8% | 4.14 µM |  |  |
| C[N+]1(CCOc2cnc3c4c(cccc24)C(=O)c2ccccc2-3)CCCC1 | 48.8% | > 25 µM | 302 nM | 145 nM |
| CCN(CC)CCOc1ccc2c3c(nccc13)-c1ccccc1C2=O | 10.7% | > 25 µM | 3070 nM | 201 nM |
| O=C1c2ccccc2-c2ncc(OCCN3CCCCC3)c3cccc1c23 | 34.2% | > 25 µM | 723 nM | 375 nM |
| CN1CCN(CCOc2ccc3c4c(nccc24)-c2ccccc2C3=O)CC1 | 43% | > 25 µM | 2750 nM | 432 nM |
| O=C1c2ccccc2-c2ncc(OCCN3CCCC3)c3cccc1c23 | 31.8% | 12 µM | 790 nM | 471 nM |
| CCN(CC)CCC(=O)Nc1ccc2c(c1)C(=O)c1cccc3ccnc-2c13 | 62.5% | 3.94 µM |  |  |
| O=C1c2ccccc2-c2nccc3c(OCCCN4CCCCC4)ccc1c23 | 40.1% | > 25 µM | 905 nM | 22 nM |
| C[N+](C)(C)CCCC(=O)Nc1ccc2c(c1)C(=O)c1cccc3ccnc-2c13 | 58.6% | > 25 µM |  |  |
| CCN(CC)CCOc1cnc2c3c(cccc13)C(=O)c1ccccc1-2 | 3.88% | 9.21 µM | 1490 nM | 700 nM |
| COc1cc(/C=C/C(=O)CC(=O)/C=C/c2ccc(O)c(OC)c2)ccc1O | 33.3% |  |  |  |
| O=C(CN1CCCC1)Nc1ccc2c(c1)C(=O)c1cccc3ccnc-2c13 | 45.4% | 5.37 µM |  |  |
| CCN(CC)CCCOc1ccc2c3c(nccc13)-c1ccccc1C2=O | 14% | > 25 µM | 2700 nM | 34.3 nM |
| CN(C)CCCNc1ccc2c3c(nccc13)-c1ccccc1C2=O | 57.6% | > 25 µM | 3350 nM | 398 nM |
| C[N+]1(CCOc2cnc3c4c(cccc24)C(=O)c2ccccc2-3)CCCCC1 | 50.9% | > 25 µM | 255 nM | 95 nM |
| CN1CCN(CCCOc2ccc3c4c(nccc24)-c2ccccc2C3=O)CC1 | 33.6% | > 25 µM | 5500 nM | 405 nM |
| C[N+]1(CCC(=O)Nc2ccc3c(c2)C(=O)c2cccc4ccnc-3c24)CCCC1 | 85.9% | 2.12 µM |  |  |
| C[N+](C)(C)CCC(=O)Nc1ccc2c(c1)C(=O)c1cccc3ccnc-2c13 | 80.1% | > 25 µM |  |  |
| C[N+](C)(C)CCOc1cnc2c3c(cccc13)C(=O)c1ccccc1-2 | 42% | > 25 µM | 972 nM | 933 nM |
| CC[N+](C)(CC)CCC(=O)Nc1ccc2c(c1)C(=O)c1cccc3ccnc-2c13 | 82.7% | > 25 µM |  |  |
| CC[N+](C)(CC)CCOc1cnc2c3c(cccc13)C(=O)c1ccccc1-2 | 45.5% | > 25 µM | 708 nM | 258 nM |
| CN(C)CCOc1cnc2c3c(cccc13)C(=O)c1ccccc1-2 | 14.3% | 16.2 µM | 1640 nM | 1560 nM |
| O=C1c2ccccc2-c2nccc3c(OCCN4CCCCC4)ccc1c23 | 38.9% | > 25 µM | 2210 nM | 88 nM |
| O=C(CCN1CCCC1)Nc1ccc2c(c1)C(=O)c1cccc3ccnc-2c13 | 69.8% | 4.57 µM |  |  |
